# Measured values: US20100029604A1, “ANTIBACTERIAL COMBINATION AND ITS USE” (priority 2007, published 2010)
# Experiments:
# Assay type in all cases: cell-based
# E. coli TEM-1 = conditions: TEM-1, class A, inhibitor constant 4 μg/mL
# E. coli SHV-3 = assay: Synergy MIC, inhibitor at 4 μg/mL (Example 4); conditions: SHV-3, class A, inhibitor constant 4 μg/mL
# Escherichia coli OXA-3 = assay: MIC, characterised β-lactamase producing strain (Example 5, Tables 5-7); conditions: Escherichia coli OXA-3, functional group 2d; LK-157 in combination constant 4 μg/mL
# Procedure: (§1) The MIC experiments were performed in duplicate in 96-well microtiter plates using CAMHB. Serial twofold dilutions of each antibiotic either alone or in combination with constant concentration ratio of a β-lactamase inhibitor (2:1) were prepared in CAMHB. The bacterial suspension with final inoculum 10^5 CFU/mL was transferred to the test medium containing the antibacterial substances. In each well of a 96-well microtiter plate was combined 50 μL of bacterial inoculum, 50 μL of antibiotic dilutions (or media for determination of the MIC of the antibiotic in the absence of test compound). Each plate included 4 wells with no bacterial inoculum (negative control) and 4 wells with no test compound and no antibiotic (positive control). The plates were incubated at 35° C. for 24 h. Purity check and colony counts on each inoculum suspension was performed to ensure that the final inoculum concentration routinely obtained closely approximates 5×10^5 CFU/mL. In addition the assay is routinely monitored by testing standard antibiotics and ensuring that MIC values are within the recommended ranges for the respective strains.
# (§2) This test permits comparisons to be made between bacterial growth in the presence of antibiotic alone and bacterial growth in the presence of both an antibiotic and a novel (test) compound.
# [1] = system: Klebsiella oxytoca K1 highperproduced; assay: as above; conditions: Klebsiella oxytoca K1 highperproduced, functional group 2be, LK-157 in combination constant 4 μg/mL
# Procedure: as §1, §2
# Escherichia coli TEM-35 = assay: as above; conditions: Escherichia coli TEM-35, functional group 2br; LK-157 in combination constant 4 μg/mL
# Procedure: as §1, §2
# Escherichia coli TEM-3 = assay: as above; conditions: Escherichia coli TEM-3, functional group 2be; LK-157 in combination constant 4 μg/mL
# Procedure: as §1, §2
# Escherichia coli HMS-1 = assay: as above; conditions: Escherichia coli HMS-1, functional group 2b; LK-157 in combination constant 4 μg/mL
# Procedure: as §1, §2
# Escherichia coli SHV-3 = assay: as above; conditions: Escherichia coli SHV-3, functional group 2be; LK-157 in combination constant 4 μg/mL
# Procedure: as §1, §2
# [2] = system: Pseudomonas aeruginosa CARB-3; assay: as above; conditions: Pseudomonas aeruginosa CARB-3, functional group 2c; LK-157 in combination constant 4 μg/mL
# Procedure: as §1, §2
# E. coli TEM-2 = conditions: TEM-2, class A, inhibitor constant 4 μg/mL
# Escherichia coli TEM-5 = assay: MIC, characterised β-lactamase producing strain (Example 5, Tables 5-7); conditions: Escherichia coli TEM-5, functional group 2be; LK-157 in combination constant 4 μg/mL
# Procedure: as §1, with “Serial twofold dilutions of each antibiotic either alone or in combination with constant concentration ratio of a β-lactamase inhibitor (2:1) were prepared in CAMHB.” left out
# as §2
# Escherichia coli TEM-20 = assay: as above; conditions: Escherichia coli TEM-20, functional group 2be; LK-157 in combination constant 4 μg/mL
# Procedure: as §1, with “Serial twofold dilutions of each antibiotic either alone or in combination with constant concentration ratio of a β-lactamase inhibitor (2:1) were prepared in CAMHB.” left out
# as §2
# Escherichia coli TEM-6 = assay: as above; conditions: Escherichia coli TEM-6, functional group 2be; LK-157 in combination constant 4 μg/mL
# Procedure: as §1, with “Serial twofold dilutions of each antibiotic either alone or in combination with constant concentration ratio of a β-lactamase inhibitor (2:1) were prepared in CAMHB.” left out
# as §2
# Escherichia coli TEM-50 = assay: as above; conditions: Escherichia coli TEM-50, functional group 2be; LK-157 in combination constant 4 μg/mL
# Procedure: as §1, with “Serial twofold dilutions of each antibiotic either alone or in combination with constant concentration ratio of a β-lactamase inhibitor (2:1) were prepared in CAMHB.” left out
# as §2
# [3] = system: Klebsiella pneumoniae TEM-1, SHV; assay: as above; conditions: functional group 2b, unknown, LK-157 in combination constant 4 μg/mL
# Procedure: as §1, with “Serial twofold dilutions of each antibiotic either alone or in combination with constant concentration ratio of a β-lactamase inhibitor (2:1) were prepared in CAMHB.” left out
# as §2
# Escherichia coli SHV-2 = assay: as above; conditions: Escherichia coli SHV-2, functional group 2be; LK-157 in combination constant 4 μg/mL
# Procedure: as §1, with “Serial twofold dilutions of each antibiotic either alone or in combination with constant concentration ratio of a β-lactamase inhibitor (2:1) were prepared in CAMHB.” left out
# as §2
# [4] = system: Pseudomonas aeruginosa LCR-1; assay: as above; conditions: Pseudomonas aeruginosa LCR-1, functional group 2d; LK-157 in combination constant 4 μg/mL
# Procedure: as §1, with “Serial twofold dilutions of each antibiotic either alone or in combination with constant concentration ratio of a β-lactamase inhibitor (2:1) were prepared in CAMHB.” left out
# as §2
# Escherichia coli TEM-7 = assay: as above; conditions: Escherichia coli TEM-7, functional group 2be; LK-157 in combination constant 4 μg/mL
# Procedure: as §1, with “Serial twofold dilutions of each antibiotic either alone or in combination with constant concentration ratio of a β-lactamase inhibitor (2:1) were prepared in CAMHB.” left out
# as §2
# [5] = system: Pseudomonas aeruginosa PSE-1; assay: as above; conditions: Pseudomonas aeruginosa PSE-1, functional group 2c; LK-157 in combination constant 4 μg/mL
# Procedure: as §1, with “Serial twofold dilutions of each antibiotic either alone or in combination with constant concentration ratio of a β-lactamase inhibitor (2:1) were prepared in CAMHB.” left out
# as §2
# [6] = system: Klebsiella pneumoniae LAT-1; assay: as above; conditions: Klebsiella pneumoniae LAT-1, functional group 1; LK-157 in combination constant 4 μg/mL
# Procedure: as §1, with “Serial twofold dilutions of each antibiotic either alone or in combination with constant concentration ratio of a β-lactamase inhibitor (2:1) were prepared in CAMHB.” left out
# as §2
# Proteus mirabilis TEM-52 = assay: as above; conditions: Proteus mirabilis TEM-52, functional group 2be; LK-157 in combination constant 4 μg/mL
# Procedure: as §1, with “Serial twofold dilutions of each antibiotic either alone or in combination with constant concentration ratio of a β-lactamase inhibitor (2:1) were prepared in CAMHB.” left out
# as §2
# [7] = system: Pseudomonas aeruginosa OXA-10; assay: as above; conditions: Pseudomonas aeruginosa OXA-10, functional group 2d; LK-157 in combination constant 4 μg/mL
# Procedure: as §1, with “Serial twofold dilutions of each antibiotic either alone or in combination with constant concentration ratio of a β-lactamase inhibitor (2:1) were prepared in CAMHB.” left out
# as §2
# [8] = system: Klebsiella pneumoniae TEM-31; assay: as above; conditions: Klebsiella pneumoniae TEM-31, functional group 2br; LK-157 in combination constant 4 μg/mL
# Procedure: as §1, with “Serial twofold dilutions of each antibiotic either alone or in combination with constant concentration ratio of a β-lactamase inhibitor (2:1) were prepared in CAMHB.” left out
# as §2
# K. pneumoniae SHV-18 = assay: Synergy MIC, inhibitor at 4 μg/mL (Example 4); conditions: SHV-18, class A, inhibitor constant 4 μg/mL
smiles,measurement,setting,value
CO/N=C(\C(=O)N[C@@H]1C(=O)N2C(C(=O)[O-])=C(C[N+]3(C)CCCC3)CS[C@H]12)c1csc(N)n1 [cefepime],MIC,E. coli TEM-1,12.8 µg/mL
same,MIC,E. coli SHV-3,0.4 µg/mL
same,MIC,Escherichia coli OXA-3,0.125 µg/mL
same,MIC,[1]; first listed (r47),1 µg/mL
same,MIC,[1]; second listed (r48),4 µg/mL
same,MIC,Escherichia coli TEM-35,0.125 µg/mL
same,MIC,Escherichia coli TEM-3,4 µg/mL
same,MIC,Escherichia coli HMS-1,0.125 µg/mL
same,MIC,Escherichia coli SHV-3,4 µg/mL
same,MIC,[2],16 µg/mL
same,MIC,E. coli TEM-2,≦0.025
same,MIC,Escherichia coli TEM-5,0.5 µg/mL
same,MIC,Escherichia coli TEM-20,4 µg/mL
same,MIC,Escherichia coli TEM-6,4 µg/mL
same,MIC,Escherichia coli TEM-50,32 µg/mL
same,MIC,[3],4 µg/mL
same,MIC,Escherichia coli SHV-2,2 µg/mL
same,MIC,[4],128 µg/mL
same,MIC,Escherichia coli TEM-7,16 µg/mL
same,MIC,[5],32 µg/mL
same,MIC,[6],0.125 µg/mL
same,MIC,Proteus mirabilis TEM-52,16 µg/mL
same,MIC,[7],64 µg/mL
same,MIC,[8],0.125 µg/mL
same,MIC,K. pneumoniae SHV-18,0.8 µg/mL
